The record followed here is the supplement of paper PMC10307832.

Holding throughout (assay): relative viability (nuclei count vs DMSO), 5 days (fraction); higher = more cells survive
Compound in assay [1]: Nc1nc2[nH]cc(CCc3ccc(C(=O)N[C@@H](CCC(=O)O)C(=O)O)cc3)c2c(=O)[nH]1 [Pemetrexed] + N=C(N)NC(=N)NCCc1ccccc1 [Phenformin] (partner 250 µM)
A digest of the protocol:
(§1)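 Each reported value is a median over duplicate plates. It expresses relative viability: treated-well nuclei count divided by vehicle-well nuclei count. Lung cancer cell lines in 1536-well plates were dosed by pin tool a day after seeding, alone with one drug or with a fixed anchor-drug dose plus five library-drug doses (not always all listed) in √10 steps, and nuclei were counted after 5 days.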

Compound in assay [2]: CC[C@H](Nc1ncnc2[nH]cnc12)c1nc2cccc(F)c2c(=O)n1-c1ccccc1 [Idelalisib] + CS(=O)(=O)N1CCN(Cc2cc3nc(-c4cccc5[nH]ncc45)nc(N4CCOCC4)c3s2)CC1 [Pictilisib] (partner 1 µM)
The method in brief:
as §1

Compound in assay [3]: Nc1nc2[nH]cc(CCc3ccc(C(=O)N[C@@H](CCC(=O)O)C(=O)O)cc3)c2c(=O)[nH]1 [Pemetrexed] + CC(C)C[C@H](NC(=O)[C@H](Cc1ccccc1)NC(=O)c1cnccn1)B(O)O [Bortezomib] (partner 0.002 µM)
A digest of the protocol:
as §1

Compound in assay [4]: Nc1nc2[nH]cc(CCc3ccc(C(=O)N[C@@H](CCC(=O)O)C(=O)O)cc3)c2c(=O)[nH]1 [Pemetrexed] + NC(=O)Nc1cc(-c2cccc(F)c2)sc1C(=O)N[C@H]1CCCNC1 [AZD7762] (partner 0.2 µM)
A digest of the protocol: as §1

Consider 201T, for which the relative viability in assay [1] (first compound 0.002 µM) was 0.428; in assay [1] (first compound 0.006325 µM), 0.494; in assay [1] (first compound 0.02 µM) it was 0.479; in assay [1] (first compound 0.06325 µM), 0.426; in assay [1] (first compound 0.2 µM), 0.403; in assay [2] (first compound 0.04 µM), 0.686. The relative viability in assay [2] (first compound 0.1265 µM) was 0.712; in assay [2] (first compound 0.4 µM) it was 0.59; in assay [2] (first compound 1.265 µM) it was 0.736; in assay [2] (first compound 4 µM) it was 0.661; in assay [3] (first compound 0.002 µM), 1.05; in assay [3] (first compound 0.006325 µM), 1.11. Also, the relative viability in assay [3] (first compound 0.02 µM) is 1.12; in assay [3] (first compound 0.06325 µM) it was 1.09; in assay [3] (first compound 0.2 µM), 1.03; in assay [4] (first compound 0.002 µM), 0.606; in assay [4] (first compound 0.006325 µM), 0.612; in assay [4] (first compound 0.02 µM), 0.725. Moreover, the relative viability in assay [4] (first compound 0.06325 µM) was 0.512; in assay [4] (first compound 0.2 µM) it was 0.374.

For A549, the relative viability in assay [1] (first compound 0.002 µM) came to 0.161; in assay [1] (first compound 0.006325 µM), 0.155; in assay [1] (first compound 0.02 µM) it was 0.169; in assay [1] (first compound 0.06325 µM) it was 0.161; in assay [1] (first compound 0.2 µM) it was 0.14; in assay [2] (first compound 0.04 µM), 0.412. Moreover, the relative viability in assay [2] (first compound 0.1265 µM) amounted to 0.516; in assay [2] (first compound 0.4 µM), 0.409; in assay [2] (first compound 1.265 µM), 0.468; in assay [2] (first compound 4 µM) it was 0.371.

Regarding A-427, the relative viability in assay [1] (first compound 0.002 µM) was determined as 0.298; in assay [1] (first compound 0.006325 µM) it was 0.42; in assay [1] (first compound 0.02 µM), 0.377; in assay [1] (first compound 0.06325 µM) it was 0.308; in assay [1] (first compound 0.2 µM), 0.355; in assay [2] (first compound 0.04 µM), 0.871. The relative viability in assay [2] (first compound 0.1265 µM) came out at 0.789; in assay [2] (first compound 0.4 µM) it was 0.826; in assay [2] (first compound 1.265 µM) it was 0.743; in assay [2] (first compound 4 µM), 0.724; in assay [3] (first compound 0.002 µM), 0.929; in assay [3] (first compound 0.006325 µM) it was 1.06. The relative viability in assay [3] (first compound 0.02 µM) turned out to be 1.04; in assay [3] (first compound 0.06325 µM), 0.96; in assay [3] (first compound 0.2 µM), 1.06; in assay [4] (first compound 0.002 µM) it was 0.798; in assay [4] (first compound 0.006325 µM) it was 0.708; in assay [4] (first compound 0.02 µM) it was 0.818. The relative viability in assay [4] (first compound 0.06325 µM) is 0.755; in assay [4] (first compound 0.2 µM) it was 0.733.

For ABC-1, the relative viability in assay [1] (first compound 0.002 µM) stood at 0.283; in assay [1] (first compound 0.006325 µM), 0.24; in assay [1] (first compound 0.02 µM) it was 0.26; in assay [1] (first compound 0.06325 µM), 0.283; in assay [1] (first compound 0.2 µM), 0.249; in assay [2] (first compound 0.04 µM), 0.726. Also, the relative viability is 0.771 in assay [2] (first compound 0.1265 µM); 0.566 in assay [2] (first compound 0.4 µM); 0.813 in assay [2] (first compound 1.265 µM); 0.723 in assay [2] (first compound 4 µM); 0.244 in assay [3] (first compound 0.002 µM); 0.297 in assay [3] (first compound 0.006325 µM). The relative viability was determined as 0.322 in assay [3] (first compound 0.02 µM); 0.214 in assay [3] (first compound 0.06325 µM); 0.292 in assay [3] (first compound 0.2 µM); 0.907 in assay [4] (first compound 0.002 µM); 0.847 in assay [4] (first compound 0.006325 µM); 0.856 in assay [4] (first compound 0.02 µM). In addition, the relative viability in assay [4] (first compound 0.06325 µM) is 0.732; in assay [4] (first compound 0.2 µM) it was 0.726.

Turning to BEN, the relative viability came to 0.288 in assay [1] (first compound 0.002 µM); 0.283 in assay [1] (first compound 0.006325 µM); 0.255 in assay [1] (first compound 0.02 µM); 0.272 in assay [1] (first compound 0.06325 µM); 0.275 in assay [1] (first compound 0.2 µM); 0.559 in assay [2] (first compound 0.04 µM). The relative viability stood at 0.517 in assay [2] (first compound 0.1265 µM); 0.531 in assay [2] (first compound 0.4 µM); 0.609 in assay [2] (first compound 1.265 µM); 0.523 in assay [2] (first compound 4 µM); 0.838 in assay [3] (first compound 0.002 µM); 0.847 in assay [3] (first compound 0.006325 µM). Further, the relative viability was found to be 1.01 in assay [3] (first compound 0.02 µM); 0.855 in assay [3] (first compound 0.06325 µM); 0.688 in assay [3] (first compound 0.2 µM); 0.746 in assay [4] (first compound 0.002 µM); 0.849 in assay [4] (first compound 0.006325 µM); 0.765 in assay [4] (first compound 0.02 µM). The relative viability in assay [4] (first compound 0.06325 µM) came to 0.638; in assay [4] (first compound 0.2 µM), 0.648.

With CAL-12T, the relative viability came out at 0.502 in assay [1] (first compound 0.002 µM); 0.477 in assay [1] (first compound 0.006325 µM); 0.612 in assay [1] (first compound 0.02 µM); 0.58 in assay [1] (first compound 0.06325 µM); 0.608 in assay [1] (first compound 0.2 µM); 0.382 in assay [2] (first compound 0.04 µM). Further, the relative viability in assay [2] (first compound 0.1265 µM) stood at 0.47; in assay [2] (first compound 0.4 µM), 0.257; in assay [2] (first compound 1.265 µM), 0.43; in assay [2] (first compound 4 µM) it was 0.417; in assay [3] (first compound 0.002 µM), 0.812; in assay [3] (first compound 0.006325 µM), 0.935. For the same cell line, the relative viability turned out to be 1.16 in assay [3] (first compound 0.02 µM); 0.9 in assay [3] (first compound 0.06325 µM); 0.939 in assay [3] (first compound 0.2 µM); 0.562 in assay [4] (first compound 0.002 µM); 0.685 in assay [4] (first compound 0.006325 µM); 0.782 in assay [4] (first compound 0.02 µM). For the same cell line, the relative viability in assay [4] (first compound 0.06325 µM) is 0.579; in assay [4] (first compound 0.2 µM) it was 0.543.

Regarding COR-L23, the relative viability in assay [1] (first compound 0.002 µM) turned out to be 0.394; in assay [1] (first compound 0.006325 µM), 0.431; in assay [1] (first compound 0.02 µM) it was 0.47; in assay [1] (first compound 0.06325 µM) it was 0.26; in assay [1] (first compound 0.2 µM) it was 0.173; in assay [2] (first compound 0.04 µM), 0.674. Also, the relative viability amounted to 0.8 in assay [2] (first compound 0.1265 µM); 0.514 in assay [2] (first compound 0.4 µM); 0.8 in assay [2] (first compound 1.265 µM); 0.777 in assay [2] (first compound 4 µM); 0.795 in assay [3] (first compound 0.002 µM); 0.939 in assay [3] (first compound 0.006325 µM). Besides, the relative viability in assay [3] (first compound 0.02 µM) came out at 0.995; in assay [3] (first compound 0.06325 µM), 0.376; in assay [3] (first compound 0.2 µM), 0.179.

On to COR-L 105, for which the relative viability in assay [1] (first compound 0.002 µM) amounted to 0.405; in assay [1] (first compound 0.006325 µM) it was 0.45; in assay [1] (first compound 0.02 µM), 0.49; in assay [1] (first compound 0.06325 µM), 0.524; in assay [1] (first compound 0.2 µM), 0.449; in assay [2] (first compound 0.04 µM) it was 0.555. Besides, the relative viability turned out to be 0.418 in assay [2] (first compound 0.1265 µM); 0.399 in assay [2] (first compound 0.4 µM); 0.463 in assay [2] (first compound 1.265 µM); 0.31 in assay [2] (first compound 4 µM); 0.842 in assay [3] (first compound 0.002 µM); 0.704 in assay [3] (first compound 0.006325 µM). The relative viability in assay [3] (first compound 0.02 µM) was found to be 1.05; in assay [3] (first compound 0.06325 µM), 0.924; in assay [3] (first compound 0.2 µM), 0.783.

As for Calu-6, the relative viability in assay [2] (first compound 0.04 µM) was 1.05; in assay [2] (first compound 0.1265 µM), 0.947; in assay [2] (first compound 0.4 µM), 0.934; in assay [2] (first compound 1.265 µM) it was 0.902; in assay [2] (first compound 4 µM) it was 0.865; in assay [3] (first compound 0.002 µM) it was 0.963. Further, the relative viability in assay [3] (first compound 0.006325 µM) stood at 0.937; in assay [3] (first compound 0.02 µM) it was 1.01; in assay [3] (first compound 0.06325 µM) it was 0.971; in assay [3] (first compound 0.2 µM), 0.942.
